These molecules were tested against T1, HPK1 (Homo sapiens, UniProt Q92918) (assay: HPK1 biochemical enzyme assay (microfluidic mobility shift)). Conditions: 1.5 nM HPK1 (Invitrogen), 1 mM ATP, 30 min preincubation, 60 min at RT, Caliper EZ Reader.
T1 construct: purchased Invitrogen
Protocol: HPK1 biochemical enzyme assay: HPK1 enzyme inhibition was measured using a microfluidic mobility shift assay. Reactions were performed in a 384-well plate, containing 1.5 nM HPK1 (Invitrogen), in assay buffer (Cama Biosciences; pH 7.4). Test compounds were titrated in ten point curves (top final assay concentration 3 μM), and preincubated with enzyme/substrate mix for 30 min prior to initiation of the reaction by addition of ATP (1 mM final concentration) and substrate (1 μM final concentration; Carna Biosciences) diluted in assay buffer supplemented by MgCl2 (final assay concentration of 5 mM). Following 60 min incubation at RT, the reaction was terminated by addition of 60 μl/well termination buffer (Carna Biosciences) and signal determination using a Caliper EZ Reader (Perkin Elmer, UK).

T1 sequence (Q92918 whole entry): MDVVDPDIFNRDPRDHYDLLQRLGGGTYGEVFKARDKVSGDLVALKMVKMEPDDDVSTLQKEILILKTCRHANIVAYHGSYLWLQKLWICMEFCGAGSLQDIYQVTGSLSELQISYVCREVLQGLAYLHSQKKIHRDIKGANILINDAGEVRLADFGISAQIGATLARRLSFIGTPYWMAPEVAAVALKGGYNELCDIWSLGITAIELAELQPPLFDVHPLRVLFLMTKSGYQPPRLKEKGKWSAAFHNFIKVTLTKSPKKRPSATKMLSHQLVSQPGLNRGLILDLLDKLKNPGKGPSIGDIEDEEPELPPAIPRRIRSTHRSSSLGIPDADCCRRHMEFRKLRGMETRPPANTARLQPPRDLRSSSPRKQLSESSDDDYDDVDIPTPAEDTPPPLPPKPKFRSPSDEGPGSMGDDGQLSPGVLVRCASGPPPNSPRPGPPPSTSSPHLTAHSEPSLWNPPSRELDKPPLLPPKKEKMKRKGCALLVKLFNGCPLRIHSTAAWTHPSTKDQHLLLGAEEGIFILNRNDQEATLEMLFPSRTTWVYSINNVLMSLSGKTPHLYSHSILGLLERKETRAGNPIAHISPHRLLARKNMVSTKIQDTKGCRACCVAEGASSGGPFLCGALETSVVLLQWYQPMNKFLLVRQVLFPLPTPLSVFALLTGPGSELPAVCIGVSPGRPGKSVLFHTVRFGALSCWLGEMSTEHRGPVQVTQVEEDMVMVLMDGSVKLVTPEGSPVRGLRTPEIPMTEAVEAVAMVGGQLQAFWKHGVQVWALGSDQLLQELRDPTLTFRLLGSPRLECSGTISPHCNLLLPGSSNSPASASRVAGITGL

| IC50 [nM] | SMILES |
| --- | --- |
| 100 to 1000 | C[C@H](c1nc(Nc2ccc(-c3cnc4cc(F)ccn34)c3c2C(=O)NC3)ccc1C1CCOCC1)N(C)C [Compound I-7, (R)-7-((6-(1-(dimethylamino)ethyl)-5-(tetrahydro-2H-pyran-4-yl)pyridin-2-yl)amino)-4-(7-fluoroimidazo[1,2-a]pyridin-3-yl)isoindolin-1-one] |
| ≤ 100 | CCN1CCC(c2ccc(Nc3ccc(-c4cnc5cc(F)ccn45)c4c3C(=O)NC4)nc2CN(C)C)CC1=O (centres unmarked) [Compound I-48, 7-[[6-[(dimethylamino)methyl]-5-(1-ethyl-2-oxo-4-piperidyl)-2-pyridyl]amino]-4-(7-fluoroimidazo[1,2-a]pyridin-3-yl)isoindolin-1-one] |
| ≤ 100 | COC1CN(Cc2nc(Nc3ccc(-c4cnc5cnccn45)c4c3C(=O)NC4)ccc2C2CCOC2)C1 (centres unmarked) [Compound I-42, 4-imidazo[1,2-a]pyrazin-3-yl-7-[[6-[(3-methoxyazetidin-1-yl)methyl]-5-tetrahydrofuran-3-yl-2-pyridyl]amino]isoindolin-1-one] |
| ≤ 100 | CN(C)Cc1nc(Nc2ccc(-c3cnc4cc(C#N)ccn34)c3c2C(=O)NC3)ccc1C1CCOC1 (single isomer, unassigned) [Compound I-38, 3-(7-((6-((dimethylamino)methyl)-5-(tetrahydrofuran-3-yl)pyridin-2-yl)amino)-1-oxoisoindolin-4-yl)imidazo[1,2-a]pyridine-7-carbonitrile] |
| ≤ 100 | C[C@H](OC[C@H]1COCCO1)c1ccc(Nc2ccc(-c3cnc4cc(F)ccn34)c3c2C(=O)NC3)nc1CN(C)C (single isomer, unassigned) [Compound I-33] |
| ≤ 100 | CN(C)Cc1nc(Nc2ccc(-c3cnc4cc(F)ccn34)c3c2C(=O)NC3)ccc1N1CCOC(C)(C)C1=O [Compound I-23] |
| ≤ 100 | CO[C@H]1CCN(Cc2nc(Nc3ccc(-c4cnc5cc(F)ccn45)c4c3C(=O)NC4)ccc2C2CCN(C)C(=O)C2)C1 (stereo partly drawn) [Compound I-44, 4-(7-fluoroimidazo[1,2-a]pyridin-3-yl)-7-[[6-[[(3S)-3-methoxypyrrolidin-1-yl]methyl]-5-(1-methyl-2-oxo-4-piperidyl)-2-pyridyl]amino]isoindolin-1-one] |
| ≤ 100 | COCC1CC(c2ccc(Nc3ccc(-c4cnc5cc(F)ccn45)c4c3C(=O)NC4)nc2CN(C)C)CCO1 (centres unmarked) [Compound I-32] |
